The values that follow are results of earlier work, collected in article PMC5957517 (Biochimica et biophysica acta, 2018).

The test system of this data set is MRSA infections. Conditions: ref [43],[44].

Turning to `CN[C@H](CC(C)C)C(=O)N[C@H]1C(=O)N[C@@H](CC(N)=O)C(=O)N[C@H]2C(=O)N[C@H]3C(=O)N[C@H](C(=O)N[C@H](C(=O)O)c4cc(O)cc(O)c4-c4cc3ccc4O)[C@H](O)c3ccc(c(Cl)c3)Oc3cc2cc(c3O[C@@H]2O[C@H](CO)[C@@H](O)[C@H](O)[C@H]2O[C@H]2C[C@](C)(N)[C@H](O)[C@H](C)O2)Oc2ccc(cc2Cl)[C@H]1O` [vancomycin], the reported clinical efficacy was 35-57%.
